A short description of data set [1]: Half life in rhesus monkey, iv. The format is ADME, organism-based, Macaca mulatta. To be noted: in vivo.
Data set [2] deals with T1, Mitogen-activated protein kinase 14 (Homo sapiens, UniProt Q16539). The experiment in a line: Inhibition of P38 alpha MAPK.
The target in data set [3] is T1, Mitogen-activated protein kinase 14. The data set is described as follows: Inhibition of LPS stimulated TNF alpha release in whole blood. It is filed as functional, tissue-based.
Data set [4] in a line: Volume of distribution in rhesus monkey. The format is ADME, organism-based, Macaca mulatta. To be noted: in vivo, read-out: Vdss.
Data set [5] is described as follows: Oral bioavailability in rat. The format is ADME, organism-based. To be noted: in vivo.
The nature of data set [6]: Half life in rat, iv. It is filed as ADME, organism-based. To be noted: in vivo.
Data set [7] can be described thus: Volume of distribution in rat. It is filed as ADME, organism-based. The conditions noted are these: in vivo, read-out: Vdss.
The nature of data set [8]: Plasma clearance in rat. The format is ADME, organism-based.
Data set [9] in a line: Plasma clearance in rhesus monkey. The format is ADME, organism-based, Macaca mulatta.
Data set [10] can be described thus: Oral bioavailability in rhesus monkey. It is filed as ADME, organism-based, Macaca mulatta. The conditions noted are these: in vivo.
Data set [11] addresses T1, Mitogen-activated protein kinase 14. The experiment in a line: Inhibition of TNF alpha release in THP1 cells. The format is functional, cell-based, THP-1.
Data set [12] is described as follows: Half life in dog, iv. The format is ADME, organism-based, Canis lupus familiaris. The conditions noted are these: in vivo.
A short description of data set [13]: Plasma clearance in dog. It is filed as ADME, organism-based, Canis lupus familiaris.
Data set [14] in a line: Volume of distribution in dog. The format is ADME, organism-based, Canis lupus familiaris. The conditions noted are these: in vivo, read-out: Vdss.
The nature of data set [15]: Oral bioavailability in dog. The format is ADME, organism-based, Canis lupus familiaris. The conditions noted are these: in vivo.

Consider 21 molecules from ChEMBL document CHEMBL1148534, “p38 MAP kinase inhibitors: metabolically stabilized piperidine-substituted quinolinones and naphthyridinones” (Bioorg Med Chem Lett, 2006).

T1 sequence (Q16539 whole entry): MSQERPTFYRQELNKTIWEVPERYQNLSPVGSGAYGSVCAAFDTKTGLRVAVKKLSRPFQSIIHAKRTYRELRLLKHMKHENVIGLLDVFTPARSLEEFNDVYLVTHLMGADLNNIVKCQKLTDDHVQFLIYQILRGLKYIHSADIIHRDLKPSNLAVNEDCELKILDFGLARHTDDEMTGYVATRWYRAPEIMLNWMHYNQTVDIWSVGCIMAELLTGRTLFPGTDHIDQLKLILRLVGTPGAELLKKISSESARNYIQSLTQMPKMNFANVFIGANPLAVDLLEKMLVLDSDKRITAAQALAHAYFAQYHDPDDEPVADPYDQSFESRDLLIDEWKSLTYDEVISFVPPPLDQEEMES

On to `CC(C)(C)N1CCC(c2cc(-c3ccc(F)cc3Cl)c3ccc(=O)n(-c4c(F)cccc4F)c3c2)CC1`, for which the half-life in data set [1] is 9.55 h; in data set [6], 9.96 h. For the same molecule, the results for the IC50 in [2], in [3] and in data set [11] were 0.3 nM, 1 nM and 0.42 nM, respectively. The Vd in data set [4] was 28.6 L/kg; in [7], 3.77 L/kg. The bioavailability in data set [5] was 57%; in [10], 31.5%. The clearance in data set [8] stood at 18.5 mL/min/kg; in [9], 35.1 mL/min/kg.
Take `CC(C)N1C2CCC1CC(c1cc(-c3ccc(F)cc3Cl)c3ccc(=O)n(-c4c(Cl)cccc4Cl)c3c1)C2` (stereo not given): the values for the IC50 in data set [2], in data set [3] and in [11] were 0.51 nM, 8.51 nM and 0.99 nM, respectively. In data set [5], this molecule came in with a bioavailability of 44%. The same molecule showed a half-life in data set [6] of 3.36 h. For the same molecule, the Vd in data set [7] worked out at 5.23 L/kg. This molecule also yielded a clearance in data set [8] of 18 mL/min/kg.
Turning to `O=c1ccc2c(-c3ccc(F)cc3Cl)cc(C3CC4CCC(C3)N4)cc2n1-c1c(Cl)cccc1Cl` (stereo not given), the 50% inhibitory concentration (IC50) came to 0.45 nM in data set [2], 14.5 nM in [3] and 0.89 nM in data set [11]. The molecule further came in with a bioavailability in data set [5] of 13%. Further, the half-life in [6] was 2.56 h. The Vd in data set [7] came out at 6.2 L/kg. Also, the clearance in data set [8] turned out to be 37 mL/min/kg.
As for `CC(C)(C)N1CCC(c2cc3c(ccc(=O)n3-c3c(Cl)cccc3Cl)c(-c3ccc(F)cc3Cl)n2)CC1`, the values for the half-life in data set [1] and in data set [6] were 5.32 h and 3.69 h, respectively. Besides, the half-maximal inhibitory concentration (IC50) in data set [2] was found to be 0.38 nM; in [3] it was 5.3 nM; in data set [11], 1.6 nM. Also, the Vd in data set [4] is 22.1 L/kg; in data set [7], 11.4 L/kg. For the same molecule, the figures for the bioavailability in data set [5] and in data set [10] were 67.3% and 33%, respectively. Besides, the figures for the clearance in data set [8] and in data set [9] were 39.6 mL/min/kg and 47.5 mL/min/kg, respectively.
Take `C[C@H](C(=O)O)N1CCC(c2cc(-c3ccc(F)cc3Cl)c3ccc(=O)n(-c4c(Cl)cccc4Cl)c3c2)CC1`: the IC50 in [2] was 3.2 nM; in [3], 25 nM; in data set [11] it was 3.8 nM.
For `CC(C)(C)N1CCC(Oc2cc(-c3ccc(F)cc3F)c3ccc(=O)n(-c4c(F)cccc4F)c3c2)CC1` the same measures were 10.5 nM, 18.4 nM and 2.2 nM.
On to `COC(=O)C(C)N1CCC(c2cc(-c3ccc(F)cc3Cl)c3ccc(=O)n(-c4c(Cl)cccc4Cl)c3c2)CC1` (stereo not given), for which the figures for the IC50 in data set [2], in data set [3] and in data set [11] were 8.1 nM, 28 nM and 1.3 nM, respectively.
Consider `COC(=O)C(C)(C)N1CCC(c2cc(-c3ccc(F)cc3Cl)c3ccc(=O)n(-c4c(Cl)cccc4Cl)c3c2)CC1`, for which the IC50 in data set [2] was 6.7 nM; in [3], 130 nM; in data set [11], 2.59 nM.
In the case of `CC(C)(C)N1CC=C(c2cc(-c3ccc(F)cc3Cl)c3ccc(=O)n(-c4c(Cl)cccc4Cl)c3c2)CC1`, the half-maximal inhibitory concentration (IC50) in [2] was found to be 1.15 nM; in [3], 50.8 nM; in data set [11], 0.74 nM.
For `C[C@@H](C(=O)O)N1CCC(c2cc(-c3ccc(F)cc3Cl)c3ccc(=O)n(-c4c(Cl)cccc4Cl)c3c2)CC1`, the half-maximal inhibitory concentration (IC50) in data set [2] turned out to be 1.3 nM; in [3] it was 28 nM; in data set [11], 3.2 nM. Besides, in data set [5], the bioavailability turned out to be 0.11%. This molecule showed a half-life in data set [6] of 0.44 h. In addition, the Vd in data set [7] amounted to 0.7 L/kg. The molecule further came in with a clearance in data set [8] of 59 mL/min/kg.
For the molecule `CC(C)(C(=O)O)N1CCC(c2cc(-c3ccc(F)cc3Cl)c3ccc(=O)n(-c4c(Cl)cccc4Cl)c3c2)CC1`, the IC50 in data set [2] amounted to 0.84 nM; in [3], 79.1 nM; in data set [11], 3.75 nM.
`CN1C2CCC1CC(c1cc(-c3ccc(F)cc3Cl)c3ccc(=O)n(-c4c(Cl)cccc4Cl)c3c1)C2` (stereo not given): the IC50 turned out to be 0.61 nM in data set [2], 7.71 nM in data set [3] and 0.82 nM in [11]. The molecule also returned a bioavailability in data set [5] of 30%. Besides, in data set [6], the half-life was 3.12 h. Further, the Vd in [7] amounted to 6.87 L/kg. The same molecule yielded a clearance in data set [8] of 27 mL/min/kg.
Take `CC(C)(C)N1CCC(c2cc3c(ccc(=O)n3-c3c(Cl)cccc3Cl)c(-c3ccc(F)cc3F)n2)CC1`: the half-life is 6.5 h in data set [1], 15.5 h in data set [12] and 9.05 h in [6]. Further, the half-maximal inhibitory concentration (IC50) in data set [2] stood at 0.51 nM; in data set [3], 5.2 nM; in data set [11], 0.69 nM. The Vd in [4] amounted to 21.6 L/kg; in data set [7], 24 L/kg; in data set [14] it was 23.8 L/kg. In addition, the figures for the clearance in data set [13], in data set [8] and in data set [9] were 20.5 mL/min/kg, 32.3 mL/min/kg and 41.5 mL/min/kg, respectively. In addition, the values for the bioavailability in [5], in [15] and in [10] were 62%, 99.3% and 23%, respectively.
Take `CC(C)(C)N1CCC(c2cc(-c3ccc(F)cc3Cl)c3ccc(=O)n(-c4c(Cl)cccc4Cl)c3c2)CC1`: the half-life in [1] is 13.6 h; in [12], 5.59 h; in [6], 3.5 h. In addition, the half-maximal inhibitory concentration (IC50) was 0.31 nM in data set [2], 2.6 nM in [3] and 0.27 nM in data set [11]. For the same molecule, the values for the Vd in data set [4], in data set [7] and in [14] were 52.8 L/kg, 3.84 L/kg and 23.8 L/kg, respectively. For the same molecule, the clearance in data set [13] came out at 26.8 mL/min/kg; in data set [8], 14 mL/min/kg; in data set [9], 52.9 mL/min/kg. Also, the bioavailability in [5] turned out to be 47.7%; in data set [15], 83%; in data set [10], 49%.
As to `CC1(C)C=C(c2cc(-c3ccc(F)cc3Cl)c3ccc(=O)n(-c4c(Cl)cccc4Cl)c3c2)CC(C)(C)N1`, the IC50 was 0.26 nM in data set [2], 24.2 nM in data set [3] and 3.32 nM in [11]. Also, in data set [5], the bioavailability amounted to 36%. This molecule also gave a half-life in [6] of 3.17 h. Besides, the Vd in [7] was determined as 7.32 L/kg. In addition, in [8], the clearance stood at 30.1 mL/min/kg.
Take `CC(C)(C)N1CCC(c2cc(-c3ccccc3Cl)c3ccc(=O)n(-c4c(Cl)cccc4Cl)c3c2)CC1`: the IC50 in [2] worked out at 0.1 nM; in data set [3] it was 6.4 nM; in data set [11], 1 nM.
Regarding `CC(C)(C)N1CCC(c2cc(-c3ccc(F)cc3F)c3ccc(=O)n(-c4c(Cl)cccc4Cl)c3c2)CC1`, the half-life is 9.7 h in data set [1], 19.8 h in data set [12] and 4.13 h in data set [6]. In addition, the IC50 in [2] amounted to 0.14 nM; in data set [3], 2.4 nM; in data set [11], 1.7 nM. For the same molecule, the values for the Vd in data set [4], in data set [7] and in data set [14] were 26.2 L/kg, 3.82 L/kg and 8.99 L/kg, respectively. Moreover, the clearance in [13] amounted to 5.5 mL/min/kg; in data set [8], 11.9 mL/min/kg; in [9], 29.2 mL/min/kg. Besides, the bioavailability was 69.3% in data set [5], 36.2% in data set [15] and 56.5% in [10].
On to `CC(C)(C)N1CCC(c2cc3c(ccc(=O)n3-c3c(Cl)cccc3Cl)c(-c3ccccc3Cl)n2)CC1`, for which the half-life is 5.42 h in data set [12] and 5.1 h in data set [6]. The figures for the IC50 in data set [2] and in data set [3] were 1.4 nM and 6.8 nM, respectively. For the same molecule, the clearance in data set [13] amounted to 37.6 mL/min/kg; in [8] it was 25 mL/min/kg. The figures for the bioavailability in data set [5] and in data set [15] were 66% and 9.35%, respectively. Further, the Vd in [7] came out at 10.1 L/kg; in data set [14], 15.1 L/kg.
`CC(C)(C)N1CCC(Oc2cc(-c3ccccc3Cl)c3ccc(=O)n(-c4c(Cl)cccc4Cl)c3c2)CC1`: the IC50 in [2] is 1.6 nM; in data set [3] it was 13 nM; in data set [11], 1.8 nM. The same molecule came in with a bioavailability in [5] of 32.3%. For the same molecule, the half-life in data set [6] was 2.33 h. Moreover, the Vd in data set [7] was found to be 6.17 L/kg. Besides, the clearance in data set [8] was 34.1 mL/min/kg.
As to `CC(C)(C)N1CCC(Oc2cc(-c3ccc(F)cc3Cl)c3ccc(=O)n(-c4c(Cl)cccc4Cl)c3c2)CC1`, the values for the IC50 in data set [2], in data set [3] and in data set [11] were 7.1 nM, 16.2 nM and 2.4 nM, respectively.
For the molecule `CC(C)(C)N1CCC(Oc2cc(-c3ccc(F)cc3F)c3ccc(=O)n(-c4c(Cl)cccc4Cl)c3c2)CC1`, the results for the IC50 in [2] and in [11] were 1.87 nM and 0.77 nM, respectively.

The term half-life denotes how long it takes for the measured level to halve. Usually IC50 stands for the concentration needed to halve the response being measured. Broadly, the bioavailability is dose-corrected exposure relative to a reference, in per cent. As a reminder, the clearance is the rate of elimination divided by the concentration.
